Assay [1] deals with T1, Pim-1 stably transfected into the U2OS human osteogenic sarcoma line (Homo sapiens, UniProt P11309).
T1 construct: expressed in transfected cells; host or cells: U2OS human osteogenic sarcoma line
Put plainly: Pim cell assay, phospho-BAD normalized against total BAD, U2OS stably transfected with Pim-1. It counts as cell-based. As for the experimental part:
(§1) The cell lines used in the assay were generated by the stable transfection of either Pim-1 or Pim-2 into the U2OS human osteogenic sarcoma line. The assay for determination of the Pim activity in the engineered U2OS cell lines measures levels of phospho-BAD normalized against total BAD protein levels. It was conducted as follows:
(§2) The adherent cells were dissociated from the flasks using non-enzymatic cell dissociation solution (Sigma # C5914). […] The cells were then incubated overnight at 37° C., 5% CO2.
(§3) In addition to the 10-point dosing curve of the test compound, DMSO alone was run as the high control.
(§4) This dilution in DMSO was then diluted again into cell growth medium. Aliquots (12 uL) of the compound diluted in growth medium were then transferred to the appropriate wells of the 96-well plates containing cells to yield a final DMSO concentration of 0.3%.
(§5) The cell plates containing lysis buffer were then immediately stored at −70° C.
(§6) These prepared lysates were then assayed for phospho and total BAD according to the manufacturer's protocols (Meso Scale Diagnostics, Cat# K15103C-3 & # K15103D-3). The plates were read on the MSD Sector Imager 6000, and results were calculated according to the assay protocols ((% Phosphoprotein=((2×Phospho signal)/(Phospho signal+Total signal))×100)).

In assay [2] the target is T2, full length recombinant Pim-1 protein (Homo sapiens, UniProt P11309).
T2 construct: by full length recombinant Pim-1, Pim-2, or Pim-3 protein; hexahistidine tag followed by a thrombin cleavage site (N); made in house; host or cells: Sf9 (baculovirus) or E. coli (pET28)
T2 sequence (P11309 whole entry): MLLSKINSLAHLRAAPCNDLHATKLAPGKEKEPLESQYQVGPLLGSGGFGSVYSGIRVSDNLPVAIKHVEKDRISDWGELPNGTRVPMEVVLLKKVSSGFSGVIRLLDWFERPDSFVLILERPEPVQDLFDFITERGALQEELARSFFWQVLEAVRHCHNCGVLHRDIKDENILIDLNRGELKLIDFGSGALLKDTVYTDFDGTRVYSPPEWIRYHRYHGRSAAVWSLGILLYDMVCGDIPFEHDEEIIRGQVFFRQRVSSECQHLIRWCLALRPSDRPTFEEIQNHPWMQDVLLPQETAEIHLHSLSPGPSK
Put plainly: Pim-1 enzyme assay (HTRF, phosphorylation of biotinylated-BAD (S112) peptide). The class given is biochemical. As to conditions: read-out: Pim_1_IC50. The essentials: (§7)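 Full-length His-tagged Pim-1 or Pim-2 (Sf9 or E. coli expressed, purified) phosphorylated biotinylated BAD (S112) peptide in 60 mM Hepes pH 7.0, 0.05% BSA, 2 mM DTT. Reaction stopped with 3 mM EDTA; phospho-BAD read by HTRF with Eu anti-phospho-BAD antibody and streptavidin-APC. IC50 from percent of control by 4-parameter logistic fit.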

In assay [3] the target is T3, full length recombinant Pim-2 protein (Homo sapiens, UniProt Q9P1W9).
T3 construct: by full length recombinant Pim-1, Pim-2, or Pim-3 protein; hexahistidine tag followed by a thrombin cleavage site (N); made in house; host or cells: Sf9 (baculovirus) or E. coli (pET28)
T3 sequence (Q9P1W9 whole entry): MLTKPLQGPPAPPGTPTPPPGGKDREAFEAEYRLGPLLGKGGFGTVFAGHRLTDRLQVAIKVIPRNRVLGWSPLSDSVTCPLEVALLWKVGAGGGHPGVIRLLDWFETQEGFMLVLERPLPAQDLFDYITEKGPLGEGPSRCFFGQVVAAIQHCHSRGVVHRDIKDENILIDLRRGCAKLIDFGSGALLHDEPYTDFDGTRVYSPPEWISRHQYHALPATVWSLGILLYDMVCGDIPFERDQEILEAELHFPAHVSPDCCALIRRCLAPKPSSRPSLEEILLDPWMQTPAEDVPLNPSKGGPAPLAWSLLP
Put plainly: Pim-2 enzyme assay (HTRF, phosphorylation of biotinylated-BAD (S112) peptide). As to conditions: read-out: Pim2_IC50. It counts as biochemical. The essentials: as §7

Assay [4] has as its target T4, Pim-2 stably transfected into the U2OS human osteogenic sarcoma line (Homo sapiens, UniProt Q9P1W9).
T4 construct: expressed in transfected cells; host or cells: U2OS human osteogenic sarcoma line
Description: Pim cell assay, phospho-BAD normalized against total BAD, U2OS stably transfected with Pim-2. Note: high dose 31.6 µM. The class given is cell-based. The following applies: U2OS cells stably transfected with Pim-2, phospho-BAD; high dose […]; read-out: Pim2_Cell_IC50. As for the experimental part: as §1, §2, §3, §4, §5, §6

Setting [5] is: U2OS stably transfected with Pim-1, phospho-BAD normalized against total BAD, 29 min incubation, read-out: Pim1_Cell_IC50_.
Setting [6] is: U2OS cells stably transfected with Pim-1, phospho-BAD, high dose […], read-out: Pim1_Cell_IC50.

The values below come from patent publication US9090593B2, “Bicyclic compounds as Pim inhibitors” (AMGEN INC., priority 2010, dated 2015).

Each structure is given as a SMILES string. pIC50: −log10 of the molar value. Like-named read-outs stand apart in the source and are kept apart here.

T1 sequence (P11309 whole entry): as the sequence (P11309 whole entry) above
T4 sequence (Q9P1W9 whole entry): as the sequence (Q9P1W9 whole entry) above

Consider `Fc1cccc(F)c1-c1ccc2[nH]nc(-c3cncc(SC4CCCNC4)n3)c2c1` (single isomer, unassigned) [Example 414], for which the pIC50 in assay [1] (setting [5]) was 5.81; in assay [2], 8.15; in assay [3] it was 7.22.
For the molecule `CC(C)Oc1cncc(-c2ccc3[nH]nc(-c4cncc(N5CCC(N)CC5)n4)c3c2)n1` [Example 5, 1-(6-(5-(6-isopropoxypyrazin-2-yl)-1H-indazol-3-yl)pyrazin-2-yl)piperidin-4-amine], the pIC50 in assay [1] (setting [6]) is 7.35; in assay [4], 5.26; in assay [3] (enzyme assay, Pim-2) it was 7.80.
With `Nc1cnnc(-c2ccc3[nH]nc(-c4cncc(N5CCC(N)CC5)n4)c3c2)c1` [Example 104, 6-(3-(6-(4-amino-1-piperidinyl)-2-pyrazinyl)-1H-indazol-5-yl)-4-pyridazinamine], the pIC50 was 5.72 in assay [1] (setting [6]); less than 4.50 in assay [4]; 9.00 in assay [3] (enzyme assay, Pim-2).
With `NC1CCN(c2cncc(-c3n[nH]c4ccc(-c5cncc(C6CC6)n5)cc34)n2)CC1` [Example 109, 1-(6-(5-(6-cyclopropyl-2-pyrazinyl)-1H-indazol-3-yl)-2-pyrazinyl)-4-piperidinamine], the pIC50 in assay [4] was 5.76; in assay [3] (enzyme assay, Pim-2), 8.70.
Take `c1cc(OC2CCC2)nc(-c2ccc3[nH]cc(-c4cncc(O[C@@H]5CCCNC5)n4)c3c2)c1` [Example 301]: the pIC50 in assay [1] (setting [5]) is 5.60; in assay [2], 7.89; in assay [3], 6.91.
With `c1cc2[nH]cc(-c3cncc(O[C@@H]4CCCNC4)n3)c2cc1-c1cncc(N2CCCC2)n1` [Example 302], the pIC50 in assay [1] (setting [5]) was 6.00; in assay [2] it was 8.05; in assay [3], 6.72.
In the same order, the values of `Cc1nccn1-c1cccc(-c2ccc3[nH]cc(-c4cncc(O[C@@H]5CCCNC5)n4)c3c2)n1` [Example 305] are 6.12, 8.15 and 6.90.
Taken in the same sequence, the figures for `Cc1ccn(-c2cccc(-c3ccc4[nH]cc(-c5cncc(O[C@@H]6CCCNC6)n5)c4c3)n2)n1` [Example 307] were 5.80, 8.22 and 6.94.
Consider `CC(C)n1cc(-c2ccc3[nH]cc(-c4cncc(O[C@@H]5CCCNC5)n4)c3c2)cn1` [Example 308, 5-(1-(1-methylethyl)-1H-pyrazol-4-yl)-3-(6-((3R)-3-piperidinyloxy)-2-pyrazinyl)-1H-indole], for which the pIC50 in assay [1] (setting [5]) is 6.80; in assay [2], 8.10; in assay [3], 7.12.
In the same order, the values of `COc1ccc(-c2ccc3[nH]cc(-c4cncc(O[C@@H]5CCCNC5)n4)c3c2)cn1` [Example 310] are 6.53, 8.22 and 7.39.
Taken in the same sequence, the figures for `CC1(C)CC1c1ccc2[nH]cc(-c3cncc(O[C@@H]4CCCNC4)n3)c2c1` (some centres unmarked) [Example 312] were 5.88, 8.05 and 7.51.
As for `COc1cccc(-c2ccc3[nH]cc(-c4cncc(O[C@@H]5CCCNC5)n4)c3c2)c1` [Example 320], the pIC50 was 6.23 in assay [1] (setting [5]), 8.22 in assay [2] and 7.52 in assay [3].
Taken in the same sequence, the figures for `c1cc(OCC2CC2)ncc1-c1ccc2[nH]cc(-c3cncc(O[C@@H]4CCCNC4)n3)c2c1` [Example 323] were 5.88, 8.10 and 7.17.
Taken in the same sequence, the figures for `COc1c(C)cc(-c2ccc3[nH]cc(-c4cncc(O[C@@H]5CCCNC5)n4)c3c2)cc1C` [Example 331] were 5.89, 8.10 and 6.95.
As for `CC1(Oc2cncc(-c3n[nH]c4ccc(-c5c(F)cccc5F)cc34)n2)CCCNC1` (centres unmarked) [Example 417], the pIC50 in assay [1] (setting [5]) was 5.83; in assay [2], 7.82; in assay [3], 6.47.
Taken in the same sequence, the figures for `NC1CCN(c2cncc(-c3n[nH]c4ccc(-c5cc6[nH]ccc6cn5)cc34)n2)CC1` [Example 504] were 5.12, 8.30 and 6.90.
With `CC(C)Oc1cncc(-c2ccc3[nH]cc(-c4nnc(N[C@@H]5CCNC5)o4)c3c2)n1` [Example 512], the results for the pIC50 in assay [2] and in assay [3] were 7.33 and 7.03, respectively.
`CC(C)Oc1cncc(-c2ccc3[nH]cc(-c4nnc(NC5CCNCC5)o4)c3c2)n1` [Example 513]: the figures for the pIC50 in assay [2] and in assay [3] were 7.32 and 6.66, respectively.
Take `CC(C)Oc1cncc(-c2ccc3[nH]cc(-c4nnc(N[C@H]5CCCNC5)o4)c3c2)n1` [Example 514]: the pIC50 in assay [2] is 7.28; in assay [3], 6.71.
In the same order, the values of `CC(C)Oc1cncc(-c2ccc3[nH]cc(-c4nnc(N5CCCC5)o4)c3c2)n1` [Example 520] are 7.28 and 6.28.
In the case of `c1cnc(-c2c[nH]c3ccc(-c4cncc(C5CC5)n4)cc23)cn1` [Example 521], the pIC50 in assay [2] was 6.37; in assay [3] it was less than 6.00.
Taken in the same sequence, the figures for `CC(C)Nc1nnc(-c2c[nH]c3ccc(-c4cncc(OC(C)C)n4)cc23)o1` [Example 522] were 7.05 and 6.35.
Taken in the same sequence, the figures for `CC(C)Oc1cncc(-c2ccc3[nH]cc(-c4nnc(Nc5ccccc5)o4)c3c2)n1` [Example 523] were 6.44 and less than 6.00.
Regarding `CN(C)c1nc(-c2n[nH]c3ccc(-c4c(F)cccc4F)cc23)cc(=O)[nH]1` [Example 526], the pIC50 in assay [2] was 7.47; in assay [3] it was 7.04.
Taken in the same sequence, the figures for `O=c1cc(-c2n[nH]c3ccc(-c4c(F)cccc4F)cc23)nc[nH]1` [Example 530] were 6.08 and 6.25.
`COC(=O)c1ccc2[nH]cc(-c3nccc(N[C@@H]4CCCNC4)n3)c2c1` [Example 531]: the pIC50 in assay [2] was 7.70; in assay [3], 6.74.
In the same order, the values of `COC(=O)c1ccc2[nH]cc(-c3cncc(N[C@@H]4CCCNC4)n3)c2c1` [Example 532] are 8.40 and 7.25.
As for `COC(=O)c1ccc2[nH]cc(-c3ccnc(N[C@@H]4CCCNC4)n3)c2c1` [Example 533], the pIC50 in assay [2] is 6.98; in assay [3], 6.63.
In the same order, the values of `CCCCc1nc(-c2n[nH]c3ccc(-c4c(F)cccc4F)cc23)cc(=O)[nH]1` [Example 535] are 7.15 and 6.58.
Taken in the same sequence, the figures for `N#Cc1ccc2[nH]cc(-c3cncc(N[C@@H]4CCCNC4)n3)c2c1` [Example 536] were 7.52 and 6.68.
In the same order, the values of `O=C(O)c1ccc2[nH]cc(-c3cncc(N[C@@H]4CCCNC4)n3)c2c1` [Example 538] are 6.62 and less than 6.00.
As to `O=C(O)c1ccc2[nH]cc(-c3nccc(N[C@@H]4CCCNC4)n3)c2c1` [Example 539], the pIC50 in assay [2] was 6.08; in assay [3] it was less than 6.00.
In the same order, the values of `N#Cc1ccc2[nH]nc(-c3cncc(N[C@@H]4CCCNC4)n3)c2c1` [Example 540] are 7.15 and 6.40.
For `O=c1cc(-c2n[nH]c3ccc(-c4c(F)cccc4F)cc23)nc(N2CC[C@H](O)C2)[nH]1` [Example 543], the pIC50 in assay [2] is 7.52; in assay [3] it was 7.24.
Take `c1cc2[nH]cc(-c3cncc(O[C@@H]4CCCNC4)n3)c2cc1-c1csc(N2CCCC2)n1` [Example 553]: the results for the pIC50 in assay [2] and in assay [3] were 7.11 and 6.28, respectively.
Taken in the same sequence, the figures for `CN(C)C(=O)c1ccc2[nH]nc(-c3cncc(O[C@@H]4CCCNC4)n3)c2c1` [Example 556] were less than 6.00 and less than 6.00.
In the same order, the values of `CN(C)C(=O)c1ccc2[nH]nc(-c3ccnc(O[C@@H]4CCCNC4)n3)c2c1` [Example 557] are less than 6.00 and less than 6.00.
For the molecule `CN(C)C(=O)c1ccc2[nH]nc(-c3ccnc(NC4CCNCC4)n3)c2c1` [Example 561], the pIC50 in assay [2] and in assay [3] was less than 6.00 each time.
Regarding `COc1cc(-c2c[nH]c3ccc(-c4c(F)cccc4F)cc23)nc(N2CCOCC2)n1` [Example 562], the pIC50 in assay [2] and in assay [3] was less than 6.00 throughout.
With `COc1cc(N2CCC(N)CC2)nc(-c2c[nH]c3ccc(-c4c(F)cccc4F)cc23)n1` [Example 563], the values for the pIC50 in assay [2] and in assay [3] were 7.06 and 6.84, respectively.
